Experimental data: patent publication US20250188040A1, “PHARMACEUTICAL COMPOSITIONS COMPRISING WRN HELICASE INHIBITORS” (Vividion Therapeutics, Inc., priority 2022, published 2025)
pIC50: −log10 of the molar value. Read-outs that look alike come from different tables or passages of the source.

Key:
SW480 cells = experiment: Cell growth assay (CellTiter-Glo 2.0), SW480 MSS cell line; settings: Homo sapiens, SW480, 120 h, read-out: Cell Growth Inhibition GI50 SW480
HCT 116 cells = experiment: Cell growth assay (CellTiter-Glo 2.0), HCT 116 MSI-H cell line; settings: Homo sapiens, HCT-116, 120 h, read-out: Cell Growth Inhibition GI50 HCT-116
Method: The effects of compound on cellular viability were determined using the CellTiter-Glo® 2.0 Luminescent Cell Viability Assay (Promega, Madison, WI).
SW480 cells were seeded at 1,000 cells per well in Eagle's Minimum Essential Medium (EMEM) with 10% FBS. Both cell lines were seeded in a volume of 50 μL medium per well. […] The concentration range was adjusted as needed for compounds of different potencies. The cells treated with compounds were incubated for 5 days at 37° C. in 5% CO2. […] The plate was then read on a Clariostar plate reader (BMG Labtech, Cary, NC) in luminescence mode. The previously measured baseline cell viability was subtracted from the luminescence value of each well, and cell viability (% of DMSO) was plotted as a function of log compound concentration. The EC50 was then calculated for each compound using Dotmatics Software (San Diego, CA).

WRN C727 = target: T1, WRN C727 (Homo sapiens, UniProt Q14191); experiment: Target engagement, in vitro (lysate), OCI-AML2; type: binding; settings: read-out: OCI-AML2 WRN C727 TE50 in vitro (lysate)
T1 construct: endogenous in cells; host or cells: OCI-AML2
Method: Cells or cell lysates were treated with a dose response of compound followed by probe treatment, which labels solvent exposed cysteines. Proteins were enzymatically digested with trypsin and probe-labelled peptides were enriched with streptavidin. Isolated peptides were then separated using reversed-phase liquid chromatography on a C18 column (Dionex Ultimated 3000 nano-LC, Thermo). Peptides were analyzed by parallel reaction monitoring mass spectrometry (Exploris 120, Thermo).
Target engagement (%) is calculated relative to DMSO treated control samples.

[1] = target: hWRN(519-1227)_C-H3CV-GFP-10His (Homo sapiens, UniProt Q14191); experiment: Helicase Assay for WRN Inhibition (ATP-dependent, fluorescence based)
Method: Effects of compounds on WRN helicase activity were assessed with the Helicase Assay for WRN Inhibition. This is an ATP-dependent (inclusion of ATP is important and is required for this assay) fluorescence based assay using recombinant WRN and a fluorogenic DNA substrate.
WRN activity was normalized to signal from wells without WRN protein (background, 0% activity) and wells with protein treated only with DMSO (positive control, 10000 activity). For each compound the potency of inhibition (IC50) was determiined using Graphpad Prism.

[2] = WRN Helicase IC50, 30 min preincubation with ATP, 30 min reaction

T1 sequence (Q14191 whole entry): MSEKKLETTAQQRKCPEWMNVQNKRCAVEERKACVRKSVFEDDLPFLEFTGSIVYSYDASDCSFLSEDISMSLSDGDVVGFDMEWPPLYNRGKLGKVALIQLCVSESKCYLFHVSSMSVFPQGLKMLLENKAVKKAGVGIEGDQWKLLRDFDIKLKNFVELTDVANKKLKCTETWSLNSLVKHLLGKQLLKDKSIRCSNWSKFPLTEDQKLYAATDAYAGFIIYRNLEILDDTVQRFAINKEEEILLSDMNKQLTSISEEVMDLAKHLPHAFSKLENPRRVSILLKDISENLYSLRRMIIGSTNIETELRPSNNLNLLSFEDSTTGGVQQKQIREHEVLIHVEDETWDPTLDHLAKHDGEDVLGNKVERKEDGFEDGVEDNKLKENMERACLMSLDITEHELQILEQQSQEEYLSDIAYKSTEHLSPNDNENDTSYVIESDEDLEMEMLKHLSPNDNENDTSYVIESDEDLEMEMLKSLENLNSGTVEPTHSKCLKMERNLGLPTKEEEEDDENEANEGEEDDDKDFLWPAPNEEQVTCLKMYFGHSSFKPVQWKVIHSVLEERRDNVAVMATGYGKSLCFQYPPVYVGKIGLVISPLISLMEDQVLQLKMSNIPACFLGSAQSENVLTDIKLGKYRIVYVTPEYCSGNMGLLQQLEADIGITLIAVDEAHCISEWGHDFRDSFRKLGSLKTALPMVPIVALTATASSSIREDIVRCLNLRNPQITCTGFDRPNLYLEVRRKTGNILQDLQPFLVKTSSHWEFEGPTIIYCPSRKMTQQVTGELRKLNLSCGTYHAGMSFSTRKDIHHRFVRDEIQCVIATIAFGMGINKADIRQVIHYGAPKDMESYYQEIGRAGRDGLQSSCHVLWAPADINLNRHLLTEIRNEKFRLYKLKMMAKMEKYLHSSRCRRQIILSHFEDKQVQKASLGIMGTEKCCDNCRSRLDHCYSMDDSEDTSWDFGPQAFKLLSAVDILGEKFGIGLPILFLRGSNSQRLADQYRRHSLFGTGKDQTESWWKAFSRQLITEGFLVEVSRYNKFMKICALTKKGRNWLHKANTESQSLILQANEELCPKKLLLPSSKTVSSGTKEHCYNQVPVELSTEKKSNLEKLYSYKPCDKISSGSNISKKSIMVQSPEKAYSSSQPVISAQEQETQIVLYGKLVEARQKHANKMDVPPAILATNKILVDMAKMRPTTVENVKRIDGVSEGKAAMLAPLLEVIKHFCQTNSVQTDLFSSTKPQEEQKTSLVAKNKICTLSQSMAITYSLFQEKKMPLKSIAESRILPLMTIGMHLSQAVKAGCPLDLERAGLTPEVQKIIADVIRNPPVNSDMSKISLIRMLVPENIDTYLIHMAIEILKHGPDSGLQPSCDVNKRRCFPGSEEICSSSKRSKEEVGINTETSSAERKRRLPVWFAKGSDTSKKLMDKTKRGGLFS
Sequence of hWRN(519-1227)_C-H3CV-GFP-10His (Q14191 519-1227): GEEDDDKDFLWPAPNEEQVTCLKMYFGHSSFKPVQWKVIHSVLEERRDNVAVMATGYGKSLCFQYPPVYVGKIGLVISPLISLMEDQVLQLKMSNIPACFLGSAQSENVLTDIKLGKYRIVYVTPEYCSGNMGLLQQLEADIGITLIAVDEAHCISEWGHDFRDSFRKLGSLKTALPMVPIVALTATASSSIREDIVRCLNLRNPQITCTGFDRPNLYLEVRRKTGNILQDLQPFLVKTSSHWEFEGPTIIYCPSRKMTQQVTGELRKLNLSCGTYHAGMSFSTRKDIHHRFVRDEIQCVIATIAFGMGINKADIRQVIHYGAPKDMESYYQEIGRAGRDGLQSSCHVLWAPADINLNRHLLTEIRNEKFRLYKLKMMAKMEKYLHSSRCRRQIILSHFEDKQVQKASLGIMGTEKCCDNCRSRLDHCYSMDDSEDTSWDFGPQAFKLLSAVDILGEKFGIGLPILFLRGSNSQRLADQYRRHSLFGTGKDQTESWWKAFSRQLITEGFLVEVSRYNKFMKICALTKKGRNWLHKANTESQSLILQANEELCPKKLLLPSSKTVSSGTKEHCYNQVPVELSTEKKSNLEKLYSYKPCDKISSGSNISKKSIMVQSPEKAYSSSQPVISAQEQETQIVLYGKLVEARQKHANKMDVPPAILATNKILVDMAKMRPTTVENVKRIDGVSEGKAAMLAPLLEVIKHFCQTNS

Compound	GI50 (SW480 cells) [µM]	GI50 (HCT 116 cells) [µM]	pIC50 (WRN C727)	pIC50 [1, 2]	pIC50 [1]
CS(=O)(=O)/C=C/[C@H](Cc1ccccc1)NC(=O)c1cnc(C2CC2)nc1Oc1ccccc1 (single isomer, unassigned) [Example 20]	15.4	0.745	5.03	5.77	
CS(=O)(=O)/C=C\[C@H](Cc1ccccc1)NC(=O)c1cnc(C2CC2)nc1Oc1ccccc1 (single isomer, unassigned) [Example 21]	14	3.1	< 4.00	5.21	
CS(=O)(=O)/C=C\C1CN(C(=O)c2cnc(C3CC3)nc2Oc2ccccc2)C1 (single isomer, unassigned) [Example 23, (Z)-(2-cyclopropyl-4-phenoxypyrimidin-5-yl)(3-(2-(methylsulfonyl)vinyl)azetidin-1-yl)methanone]	2.8	1.1	5.05		5.47
CS(=O)(=O)/C=C/C1CN(C(=O)c2cnc(C3CC3)nc2Oc2ccccc2)C1 (single isomer, unassigned) [Example 24, (E)-(2-cyclopropyl-4-phenoxypyrimidin-5-yl)(3-(2-(methylsulfonyl)vinyl)azetidin-1-yl)methanone]	> 10	7.7	< 4.00		4.70
C[C@@H](/C=C/S(C)(=O)=O)NC(=O)c1cnc([C@H]2C[C@@H](C)C2)nc1Oc1ccccc1 (single isomer, unassigned) [Example 46]	> 11.9	0.124	6.00	6.54	
C[C@@H](/C=C/S(C)(=O)=O)NC(=O)c1cnc([C@H]2C[C@H](C)C2)nc1Oc1ccccc1 (single isomer, unassigned) [Example 47]	> 12.7	0.291	6.00	6.11	
CS(=O)(=O)/C=C/[C@@H](NC(=O)c1cnc([C@H]2C[C@@H](C)C2)nc1Oc1ccccc1)C1CC1 (single isomer, unassigned) [Example 48]	5.97	0.0365	7.46	7.21	
CS(=O)(=O)/C=C/[C@@H](NC(=O)c1cnc([C@H]2C[C@H](C)C2)nc1Oc1ccccc1)C1CC1 (single isomer, unassigned) [Example 49]	5.19	0.0602	6.66	7.04	
CS(=O)(=O)C=C1CN(C(=O)c2cnc([C@H]3C[C@@H](C)C3)nc2Oc2ccccc2)C1 (single isomer, unassigned) [Example 50, (2-((1s,3s)-3-methylcyclobutyl)-4-phenoxypyrimidin-5-yl)(3-((methylsulfonyl)methylene)azetidin-1-yl)methanone]	7.5	0.0947	6.55		6.66
CS(=O)(=O)C=C1CN(C(=O)c2cnc([C@H]3C[C@H](C)C3)nc2Oc2ccccc2)C1 (single isomer, unassigned) [Example 51, (2-((1r,3r)-3-methylcyclobutyl)-4-phenoxypyrimidin-5-yl)(3-((methylsulfonyl)methylene)azetidin-1-yl)methanone]	8.52	0.184	5.48		6.35
CC(C)[C@@H](/C=C/S(C)(=O)=O)NC(=O)c1cnc(C2CCCC2)nc1Oc1ccccc1 [Example 7, (S,E)-2-cyclopentyl-N-(4-methyl-1-(methylsulfonyl)pent-1-en-3-yl)-4-phenoxypyrimidine-5-carboxamide]	> 19.5	1.16	4.85	5.57	
CS(=O)(=O)/C=C/[C@@H](NC(=O)c1cnc(C2CCCC2)nc1Oc1ccccc1)C1CC1 [Example 8, (S,E)-2-cyclopentyl-N-(1-cyclopropyl-3-(methylsulfonyl)allyl)-4-phenoxypyrimidine-5-carboxamide]	6.72	0.044	6.71	7.12	
CS(=O)(=O)/C=C/[C@@H](NC(=O)c1cnc(C2CCCC2)nc1Oc1ccccc1)C1CCC1 [Example 9, (S,E)-N-(1-cyclobutyl-3-(methylsulfonyl)allyl)-2-cyclopentyl-4-phenoxypyrimidine-5-carboxamide]	15	0.043	6.51	6.80	
COC[C@@H](/C=C/S(C)(=O)=O)NC(=O)c1cnc(C2CCCC2)nc1Oc1ccccc1 [Example 10, (R,E)-2-cyclopentyl-N-(1-methoxy-4-(methylsulfonyl)but-3-en-2-yl)-4-phenoxypyrimidine-5-carboxamide]	27.4	0.0724	6.62	6.89	
CC(C)c1ncc(C(=O)N[C@H](/C=C/S(C)(=O)=O)C2CC2)c(Oc2ccccc2)n1 [Example 16, (S,E)-N-(1-cyclopropyl-3-(methylsulfonyl)allyl)-2-isopropyl-4-phenoxypyrimidine-5-carboxamide]	24.3	0.0849	6.19	6.74	
C[C@@H](/C=C/S(=O)(=O)C1CC1)NC(=O)c1cnc(C2CC2)nc1Oc1ccccc1 [Example 25, (S,E)-2-cyclopropyl-N-(4-(cyclopropylsulfonyl)but-3-en-2-yl)-4-phenoxypyrimidine-5-carboxamide]	> 10	5	< 4.00	4.92	
CS(=O)(=O)/C=C1/CCN(C(=O)c2cnc(C3CC3)nc2Oc2ccccc2)C1 [Example 26, (2-cyclopropyl-4-phenoxy-pyrimidin-5-yl)-[(3Z)-3-(methylsulfonylmethylene)pyrrolidin-1-yl]methanone]	54	18	< 4.00		3.99
CS(=O)(=O)/C=C/[C@H](CC1CC1)NC(=O)c1cnc(C2CC2)nc1Oc1ccccc1 [Example 28, (S,E)-2-cyclopropyl-N-(1-cyclopropyl-4-(methylsulfonyl)but-3-en-2-yl)-4-phenoxypyrimidine-5-carboxamide]	37.1	0.606	5.17	5.82	

The next lines start with the values.

GI50 (SW480 cells) [µM]	GI50 (HCT 116 cells) [µM]	pIC50 (WRN C727)	pIC50 [1, 2]	pIC50 [1]	Compound
8.2	1.4	5.02	5.66		C[C@@H]1CC[C@H](c2ncc(C(=O)N[C@@H](C)/C=C/S(C)(=O)=O)c(Oc3ccccc3)n2)C1 (racemic) [Example 215]
13	0.2	5.54	6.39		CC(C)(C)c1ncc(C(=O)N[C@H](/C=C/S(C)(=O)=O)Cc2ccccc2)c(Oc2ccccc2)n1 (single isomer, unassigned) [Example 60]
7.5	1.3	< 4.00	5.46		CC(C)(C)c1ncc(C(=O)N[C@H](/C=C\S(C)(=O)=O)Cc2ccccc2)c(Oc2ccccc2)n1 (single isomer, unassigned) [Example 61]
8.6	5.7	4.70		4.96	CC(/C=C/S(C)(=O)=O)NC(=O)c1cc(F)c(C2=CCCC2)nc1Oc1ccccc1 (stereo in doubt) [Example 206, (R,E)-6-(cyclopent-1-en-1-yl)-5-fluoro-N-(4-(methylsulfonyl)but-3-en-2-yl)-2-phenoxynicotinamide]
> 10	8.4		4.92		CSc1ncc(C(=O)NC/C=C/S(C)(=O)=O)c(Oc2ccccc2)n1 [Example 241, (E)-N-(3-(methylsulfonyl)allyl)-2-(methylthio)-4-phenoxypyrimidine-5-carboxamide]
> 10	2.8		5.01		C[C@@H](/C=C/S(C)(=O)=O)NC(=O)c1cc2ccccc2nc1Oc1ccccc1 [Example 242, (S,E)-N-(4-(methylsulfonyl)but-3-en-2-yl)-2-phenoxyquinoline-3-carboxamide]
36	0.14		5.96		CS(=O)(=O)/C=C/[C@@H](NC(=O)c1cnc(OC2CC2)nc1Oc1ccccc1)C1CC1 [Example 245, (S,E)-2-cyclopropoxy-N-(1-cyclopropyl-3-(methylsulfonyl)allyl)-4-phenoxypyrimidine-5-carboxamide]
16	0.64		5.10		CS(=O)(=O)/C=C/[C@@H](NC(=O)c1cnc(OCC(F)(F)F)nc1Oc1ccccc1)C1CC1 [Example 246, (S,E)-N-(1-cyclopropyl-3-(methylsulfonyl)allyl)-4-phenoxy-2-(2,2,2-trifluoroethoxy)pyrimidine-5-carboxamide]
3	1.7		5.19		Cc1cc(C(=O)N[C@@H](C)/C=C/S(C)(=O)=O)c(Oc2ccccc2)nc1C1CCCC1 [Example 262, (S,E)-6-cyclopentyl-5-methyl-N-(4-(methylsulfonyl)but-3-en-2-yl)-2-phenoxynicotinamide]
2.3	1.4		5.26		C[C@@H](C#CC(=O)N(C)C)NC(=O)c1cnc(C(C)(F)F)nc1Oc1ccccc1 [Example 263, (S)-2-(1,1-difluoroethyl)-N-(5-(dimethylamino)-5-oxopent-3-yn-2-yl)-4-phenoxypyrimidine-5-carboxamide]
3.9	3.5		5.10		C=C(CNC(=O)c1cnc(C2CC2)nc1Oc1ccccc1)S(C)(=O)=O [Example 287, 2-cyclopropyl-N-(2-(methylsulfonyl)allyl)-4-phenoxypyrimidine-5-carboxamide]
